# Reference: PubChem BioAssay (NCI)
#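 Where inhibition never reached the appropriate level, the endpoint shown equals the highest concentration tested. Otherwise, values were interpolated linearly from a five-concentration, 48-hour dose response in 96-well plates. Abbreviation: GI50, concentration required for 50% inhibition of growth. The concentration for full growth arrest is given as TGI.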
# Assays:
# Test in all cases: NCI tumour cell line growth inhibition, 48 h
# MOLT-4 leukemia = system: MOLT-4 leukemia
# MDA-MB-231 breast = system: MDA-MB-231 breast
# SR leukemia = system: SR leukemia
# HOP-62 NSCLC = system: HOP-62 NSCLC
# UACC-257 melanoma = system: UACC-257 melanoma
# HS 578T breast = system: HS 578T breast
# OVCAR-5 ovarian = system: OVCAR-5 ovarian
# SK-MEL-5 melanoma = system: SK-MEL-5 melanoma
# SF-295 CNS = system: SF-295 CNS
# CCRF-CEM leukemia = system: CCRF-CEM leukemia
# SW-620 colon = system: SW-620 colon
# HCC-2998 colon = system: HCC-2998 colon
# PC-3 prostate = system: PC-3 prostate
# NCI-H522 lung = system: NCI-H522 lung
# LOX IMVI melanoma = system: LOX IMVI melanoma
# ACHN renal = system: ACHN renal
# KM12 colon = system: KM12 colon
# SF-539 CNS = system: SF-539 CNS
# COLO 205 colon = system: COLO 205 colon
# K-562 leukemia = system: K-562 leukemia
# 786-0 renal = system: 786-0 renal
# A549 NSCLC = system: A549 NSCLC
# UACC-62 melanoma = system: UACC-62 melanoma
# DU-145 prostate = system: DU-145 prostate
# HT29 colon = system: HT29 colon
# NCI-H23 lung = system: NCI-H23 lung
# OVCAR-3 ovarian = system: OVCAR-3 ovarian
# SN12C renal = system: SN12C renal
# T-47D breast = system: T-47D breast
# HCT-15 colon = system: HCT-15 colon
# SNB-19 CNS = system: SNB-19 CNS
# MDA-MB-435 = system: MDA-MB-435
# NCI-H460 lung = system: NCI-H460 lung
# M14 melanoma = system: M14 melanoma
# NCI/ADR-RES ovarian = system: NCI/ADR-RES ovarian
# HOP-92 NSCLC = system: HOP-92 NSCLC
# MALME-3M melanoma = system: MALME-3M melanoma
# IGROV1 ovarian = system: IGROV1 ovarian
# OVCAR-8 ovarian = system: OVCAR-8 ovarian
# RPMI-8226 leukemia = system: RPMI-8226 leukemia
# CAKI-1 renal = system: CAKI-1 renal
# MCF7 breast = system: MCF7 breast
# OVCAR-4 ovarian = system: OVCAR-4 ovarian
# NCI-H226 lung = system: NCI-H226 lung
# SNB-75 CNS = system: SNB-75 CNS
# SK-OV-3 ovarian = system: SK-OV-3 ovarian
# RXF 393 renal = system: RXF 393 renal
# SK-MEL-2 melanoma = system: SK-MEL-2 melanoma
# TK-10 renal = system: TK-10 renal
# SK-MEL-28 melanoma = system: SK-MEL-28 melanoma
# UO-31 renal = system: UO-31 renal
# BT-549 breast = system: BT-549 breast
# HCT-116 colon = system: HCT-116 colon
# HL-60(TB) leukemia = system: HL-60(TB) leukemia
# A498 renal = system: A498 renal
# U251 CNS = system: U251 CNS
# SF-268 CNS = system: SF-268 CNS
compound,measurement,setting,value
FCc1ncc(-c2ccc(C(F)(F)F)cc2)c(NC2CCCCCC2)n1,GI50,MOLT-4 leukemia,> 10 µM
same,TGI,MOLT-4 leukemia,> 10 µM
same,GI50,MDA-MB-231 breast,> 10 µM
same,TGI,MDA-MB-231 breast,> 10 µM
same,GI50,SR leukemia,> 10 µM
same,TGI,SR leukemia,> 10 µM
same,GI50,HOP-62 NSCLC,> 10 µM
same,TGI,HOP-62 NSCLC,> 10 µM
same,GI50,UACC-257 melanoma,> 10 µM
same,TGI,UACC-257 melanoma,> 10 µM
same,GI50,HS 578T breast,> 10 µM
same,TGI,HS 578T breast,> 10 µM
same,GI50,OVCAR-5 ovarian,> 10 µM
same,TGI,OVCAR-5 ovarian,> 10 µM
same,GI50,SK-MEL-5 melanoma,> 10 µM
same,TGI,SK-MEL-5 melanoma,> 10 µM
same,GI50,SF-295 CNS,> 10 µM
same,TGI,SF-295 CNS,> 10 µM
same,GI50,CCRF-CEM leukemia,> 10 µM
same,TGI,CCRF-CEM leukemia,> 10 µM
same,GI50,SW-620 colon,> 10 µM
same,TGI,SW-620 colon,> 10 µM
same,GI50,HCC-2998 colon,> 10 µM
same,TGI,HCC-2998 colon,> 10 µM
same,GI50,PC-3 prostate,> 10 µM
same,TGI,PC-3 prostate,> 10 µM
same,GI50,NCI-H522 lung,> 10 µM
same,TGI,NCI-H522 lung,> 10 µM
same,GI50,LOX IMVI melanoma,> 10 µM
same,TGI,LOX IMVI melanoma,> 10 µM
same,GI50,ACHN renal,> 10 µM
same,TGI,ACHN renal,> 10 µM
same,GI50,KM12 colon,> 10 µM
same,TGI,KM12 colon,> 10 µM
same,GI50,SF-539 CNS,> 10 µM
same,TGI,SF-539 CNS,> 10 µM
same,GI50,COLO 205 colon,> 10 µM
same,TGI,COLO 205 colon,> 10 µM
same,GI50,K-562 leukemia,> 10 µM
same,TGI,K-562 leukemia,> 10 µM
same,GI50,786-0 renal,> 10 µM
same,TGI,786-0 renal,> 10 µM
same,GI50,A549 NSCLC,> 10 µM
same,TGI,A549 NSCLC,> 10 µM
same,GI50,UACC-62 melanoma,> 10 µM
same,TGI,UACC-62 melanoma,> 10 µM
same,GI50,DU-145 prostate,> 10 µM
same,TGI,DU-145 prostate,> 10 µM
same,GI50,HT29 colon,> 10 µM
same,TGI,HT29 colon,> 10 µM
same,GI50,NCI-H23 lung,> 10 µM
same,TGI,NCI-H23 lung,> 10 µM
same,GI50,OVCAR-3 ovarian,> 10 µM
same,TGI,OVCAR-3 ovarian,> 10 µM
same,GI50,SN12C renal,> 10 µM
same,TGI,SN12C renal,> 10 µM
same,GI50,T-47D breast,> 10 µM
same,TGI,T-47D breast,> 10 µM
same,GI50,HCT-15 colon,> 10 µM
same,TGI,HCT-15 colon,> 10 µM
same,GI50,SNB-19 CNS,> 10 µM
same,TGI,SNB-19 CNS,> 10 µM
same,GI50,MDA-MB-435,> 10 µM
same,TGI,MDA-MB-435,> 10 µM
same,GI50,NCI-H460 lung,> 10 µM
same,TGI,NCI-H460 lung,> 10 µM
same,GI50,M14 melanoma,> 10 µM
same,TGI,M14 melanoma,> 10 µM
same,GI50,NCI/ADR-RES ovarian,> 10 µM
same,TGI,NCI/ADR-RES ovarian,> 10 µM
same,GI50,HOP-92 NSCLC,5.29 µM
same,TGI,HOP-92 NSCLC,> 10 µM
same,GI50,MALME-3M melanoma,> 10 µM
same,TGI,MALME-3M melanoma,> 10 µM
same,GI50,IGROV1 ovarian,> 10 µM
same,TGI,IGROV1 ovarian,> 10 µM
same,GI50,OVCAR-8 ovarian,> 10 µM
same,TGI,OVCAR-8 ovarian,> 10 µM
same,GI50,RPMI-8226 leukemia,> 10 µM
same,TGI,RPMI-8226 leukemia,> 10 µM
same,GI50,CAKI-1 renal,> 10 µM
same,TGI,CAKI-1 renal,> 10 µM
same,GI50,MCF7 breast,> 10 µM
same,TGI,MCF7 breast,> 10 µM
same,GI50,OVCAR-4 ovarian,> 10 µM
same,TGI,OVCAR-4 ovarian,> 10 µM
same,GI50,NCI-H226 lung,> 10 µM
same,TGI,NCI-H226 lung,> 10 µM
same,GI50,SNB-75 CNS,> 10 µM
same,TGI,SNB-75 CNS,> 10 µM
same,GI50,SK-OV-3 ovarian,> 10 µM
same,TGI,SK-OV-3 ovarian,> 10 µM
same,GI50,RXF 393 renal,> 10 µM
same,TGI,RXF 393 renal,> 10 µM
same,GI50,SK-MEL-2 melanoma,> 10 µM
same,TGI,SK-MEL-2 melanoma,> 10 µM
same,GI50,TK-10 renal,> 10 µM
same,TGI,TK-10 renal,> 10 µM
same,GI50,SK-MEL-28 melanoma,> 10 µM
same,TGI,SK-MEL-28 melanoma,> 10 µM
same,GI50,UO-31 renal,> 10 µM
same,TGI,UO-31 renal,> 10 µM
same,GI50,BT-549 breast,> 10 µM
same,TGI,BT-549 breast,> 10 µM
same,GI50,HCT-116 colon,> 10 µM
same,TGI,HCT-116 colon,> 10 µM
same,GI50,HL-60(TB) leukemia,> 10 µM
same,TGI,HL-60(TB) leukemia,> 10 µM
same,GI50,A498 renal,> 10 µM
same,TGI,A498 renal,> 10 µM
same,GI50,U251 CNS,> 10 µM
same,TGI,U251 CNS,> 10 µM
same,GI50,SF-268 CNS,> 10 µM
same,TGI,SF-268 CNS,> 10 µM
